Experimental data reported in ChEMBL document CHEMBL3608273, “Discovery of Biaryl Amides as Potent, Orally Bioavailable, and CNS Penetrant RORγt Inhibitors” (ACS Med Chem Lett, 2015).

Legend:
[1] = Inhibition of Th17 cell differentiation in mouse CD4-positive T cells incubated for 3 days by ELISA method; conditions: Th17, 72 h, read-out: pIC50 (converted)
[2] = AUC (0 to 4 hrs) in C57BL/6 mouse blood at 2 mg/kg, ip by LC/MS/MS method; assay type: ADME, organism-based; parameters: time < 4 hr, dose 2 mg/kg, route intraperitoneal
[3] = species on record: Mus musculus; conditions: C57BL/6 (B6), 1 to 10 mg/kg
Description: Inhibition of disease severity in C57BL/6 (B6) mouse model of experimental autoimmune encephalomyelitis at 1 to 10 mg/kg, po qd dosed starting from day of immunization

[4] = tested on: Mus musculus; assay: Dose normalized AUC (0 to infinity) in C57BL/6 mouse at 10 mg/kg, po by LC/MS/MS method; assay type: ADME, organism-based; conditions: in vivo
[5] = AUC (0 to 4 hrs) in C57BL/6 mouse brain at 2 mg/kg, ip by LC/MS/MS method; assay type: ADME, organism-based; parameters: time < 4 hr, dose 2 mg/kg, route intraperitoneal
[6] = target: T1, Nuclear receptor ROR-gamma (Homo sapiens, UniProt P51449); assay: Inhibition of RORgammat (unknown origin) assessed as inhibition of agonist-induced response by FRET assay
T1 sequence (P51449 whole entry): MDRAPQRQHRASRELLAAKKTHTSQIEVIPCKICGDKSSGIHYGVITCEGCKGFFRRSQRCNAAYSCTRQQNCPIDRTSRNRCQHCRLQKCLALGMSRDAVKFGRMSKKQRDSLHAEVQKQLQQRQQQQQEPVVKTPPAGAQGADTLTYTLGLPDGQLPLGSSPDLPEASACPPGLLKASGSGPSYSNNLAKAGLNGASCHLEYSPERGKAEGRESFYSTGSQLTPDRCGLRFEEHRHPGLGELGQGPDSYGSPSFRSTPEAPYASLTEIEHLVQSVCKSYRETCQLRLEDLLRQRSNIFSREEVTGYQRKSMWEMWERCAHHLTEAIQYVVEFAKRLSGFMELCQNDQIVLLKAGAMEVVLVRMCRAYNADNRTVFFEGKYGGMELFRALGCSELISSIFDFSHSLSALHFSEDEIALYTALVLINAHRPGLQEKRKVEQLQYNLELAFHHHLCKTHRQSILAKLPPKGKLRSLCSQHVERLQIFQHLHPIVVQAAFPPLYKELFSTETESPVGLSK

[7] = Cmax in C57BL/6 mouse at 2 mg/kg, po by LC/MS/MS method; assay type: ADME, organism-based; parameters: dose 2 mg/kg, route oral; conditions: in vivo
[8] = Half life in C57BL/6 mouse at 1 mg/kg, ip by LC/MS/MS method; assay type: ADME, organism-based; conditions: in vivo
[9] = Oral bioavailability in C57BL/6 mouse at 2 mg/kg by LC/MS/MS method; assay type: ADME, organism-based; conditions: in vivo
[10] = tested on: Mus musculus; assay: Volume of distribution at steady state in C57BL/6 mouse at 1 mg/kg, ip by LC/MS/MS method; assay type: ADME, organism-based; conditions: in vivo
[11] = tested on: Mus musculus; assay: Dose normalized AUC (0 to infinity) in C57BL/6 mouse at 2 mg/kg, po by LC/MS/MS method; assay type: ADME, organism-based; conditions: in vivo
[12] = Blood clearance in C57BL/6 mouse at 1 mg/kg, ip by LC/MS/MS method; assay type: ADME, organism-based
[13] = Ratio of AUC (0 to 4 hrs) in brain to blood of C57BL/6 mouse at 2 mg/kg, ip by LC/MS/MS method; assay type: ADME, organism-based

Row | SMILES | IC50 [1] [nM] | AUC(0-t) at 4 h [2] [ng·h/mL] | AUC(0-t) at 4 h [5] [ng·h/mL] | other results
1 | Cc1cc(NC(=O)Cc2ccc(S(C)(=O)=O)cc2)ccc1-c1ccc(Cl)cc1OC(F)(F)F | 63.1 | 2400 | 3520 | inhibition [3]: Dose-dependent effect; AUC/dose [4]: 4048 ng·h/mL/mg/kg
2 | CCS(=O)(=O)c1ccc(CC(=O)Nc2nnc(-c3cc(Cl)ccc3Cl)s2)cc1 |  |  |  | IC50 [6]: > 25100 nM
3 | CCS(=O)(=O)c1ccc(CC(=O)Nc2ccc(-c3ccccc3OC(C)C)c(Cl)c2)cc1 | 79.4 |  |  | 
4 | CCS(=O)(=O)c1ccc(CC(=O)Nc2ccc(-c3ccccc3OC(F)(F)F)c(C)c2)cc1 | 25.1 |  |  | 
5 | CS(=O)(=O)c1ccc(CC(=O)Nc2ccc(-c3ccc(Cl)cc3OC(F)(F)F)c(Cl)c2)cc1 | 25.1 | 1730 | 1700 | 
6 | CCS(=O)(=O)c1ccc(CC(=O)Nc2ccc(-c3ccccc3OC(F)(F)F)nc2)cc1 | 7940 |  |  | 
7 | CCS(=O)(=O)c1ccc(CC(=O)Nc2ncc(-c3cc(Cl)ccc3Cl)s2)cc1 |  |  |  | IC50 [6]: > 25100 nM
8 | CCS(=O)(=O)c1ccc(CC(=O)Nc2ccc(-c3ccccc3)c(Cl)c2)cc1 | 6310 |  |  | 
9 | CCS(=O)(=O)c1ccc(CC(=O)Nc2ccc(-c3ccccc3OC(F)(F)F)c(C(=O)O)c2)cc1 | > 10000 |  |  | 
10 | CCS(=O)(=O)c1ccc(CC(=O)Nc2cccc(-c3cc(Cl)ccc3Cl)n2)cc1 |  |  |  | IC50 [6]: > 25100 nM
11 | CCS(=O)(=O)c1ccc(CC(=O)Nc2cc(Cl)c(-c3ccccc3OC(F)F)c(Cl)c2)cc1 | 10 | 1180 | 462 | 
12 | CCS(=O)(=O)c1ccc(CC(=O)Nc2cc(Cl)c(-c3ccccc3C#N)c(Cl)c2)cc1 | 79.4 | 1930 | 200 | 
13 | CCS(=O)(=O)c1ccc(CC(=O)Nc2cc(Cl)c(-c3ccccc3OC(F)(F)F)c(C#N)c2)cc1 | 31.6 |  |  | 
14 | CCS(=O)(=O)c1ccc(CC(=O)Nc2nc(-c3cc(Cl)ccc3Cl)cs2)cc1 |  |  |  | Kp [13]: 1.5
15 | NS(=O)(=O)c1ccc(CC(=O)Nc2cc(Cl)c(-c3ccccc3OC(F)(F)F)c(Cl)c2)cc1 | 7.94 | 4880 | 388 | 
16 | CCS(=O)(=O)c1ccc(CC(=O)Nc2cc(Cl)c(-c3ccccc3OC(F)(F)F)c(Cl)c2)cc1 |  | 1220 | 946 | 
17 | CCS(=O)(=O)c1ccc(CC(=O)Nc2ccc(-c3ccccc3OC(F)(F)F)c(-c3cncnc3)c2)cc1 | < 31.6 |  |  | 
18 | CCS(=O)(=O)c1ccc(CC(=O)Nc2ccc(-c3ncccc3C(F)(F)F)c(Cl)c2)cc1 | > 5010 |  |  | 
19 | CS(=O)(=O)c1ccc(CC(=O)Nc2cc(Cl)c(-c3ccccc3OC(F)(F)F)c(Cl)c2)cc1 |  | 835 | 658 | Cmax [7]: 214 ng/mL; half-life [8]: 9.7 h; bioavailability [9]: 100%; Vdss [10]: 4.4 L/kg; AUC/dose [11]: 2465 ng·h/mL/mg/kg; CL/F [12]: 5.5 mL/min/kg
20 | CCS(=O)(=O)c1ccc(CC(=O)Nc2ccc(-c3ccc(Cl)cc3OC(F)(F)F)c(Cl)c2)cc1 | 7.94 | 881 | 1760 | 

Second part, led by results:

Row | IC50 [1] [nM] | AUC(0-t) at 4 h [2] [ng·h/mL] | AUC(0-t) at 4 h [5] [ng·h/mL] | SMILES | other results
21 | 158 |  |  | CCS(=O)(=O)c1ccc(CC(=O)Nc2ccc(-c3ccccc3OC(F)(F)F)cc2)cc1 | 
22 | < 3.16 |  |  | CCS(=O)(=O)c1ccc(CC(=O)Nc2cc(C)c(-c3ccccc3OC(F)(F)F)c(Cl)c2)cc1 | 
23 | 200 |  |  | CCS(=O)(=O)c1ccc(CC(=O)Nc2ccc(-c3ccccc3C(F)(F)F)c(Cl)c2)cc1 | Cmax [7]: 211 ng/mL; half-life [8]: 2.2 h; bioavailability [9]: 75%; Vdss [10]: 3.2 L/kg; AUC/dose [11]: 713 ng·h/mL/mg/kg; CL/F [12]: 17.6 mL/min/kg
24 | 1000 |  |  | CCS(=O)(=O)c1ccc(CC(=O)Nc2ccc(-c3ccccc3Cl)c(Cl)c2)cc1 | 
25 | 50.1 | 2020 | 2350 | CS(=O)(=O)c1ccc(CC(=O)Nc2ccc(-c3ccc(Cl)cc3OC(F)(F)F)c(F)c2)cc1 | 
26 | 79.4 |  |  | CCS(=O)(=O)c1ccc(CC(=O)Nc2ccc(-c3ccccc3OC(F)(F)F)c(Cl)c2)cc1 | Cmax [7]: 203 ng/mL; half-life [8]: 4.2 h; bioavailability [9]: 102%; Vdss [10]: 3.8 L/kg; AUC/dose [11]: 1313 ng·h/mL/mg/kg; CL/F [12]: 11.6 mL/min/kg
27 | > 10000 |  |  | CCS(=O)(=O)c1ccc(CC(=O)Nc2ccc(-c3ccccc3)cc2)cc1 | 
28 | > 10000 |  |  | CCS(=O)(=O)c1ccc(CC(=O)Nc2ccc(-c3ccccc3CN(C)C)c(Cl)c2)cc1 | 
29 | 63.1 |  |  | CCS(=O)(=O)c1ccc(CC(=O)Nc2ccc(-c3ccccc3OC(F)(F)F)c(-c3ccno3)c2)cc1 | 
30 | 126 |  |  | CCS(=O)(=O)c1ccc(CC(=O)Nc2ccc(-c3ccccc3OC(F)(F)F)c(C(F)(F)F)c2)cc1 | 
31 | 2510 |  |  | CCS(=O)(=O)c1ccc(CC(=O)Nc2ccc(-c3ccccc3OC(F)(F)F)c(C(C)=O)c2)cc1 | 
32 | 158 | 1380 | 76 | CCS(=O)(=O)c1ccc(CC(=O)Nc2cc(Cl)c(-c3ccc(F)cc3C#N)c(Cl)c2)cc1 | 
33 | > 6310 |  |  | CCS(=O)(=O)c1ccc(CC(=O)Nc2ccc(-c3cccn3C)c(Cl)c2)cc1 | 
